The values below come from US5972946A, “Acetamide derivative, process for preparing the same, and a pharmaceutical composition containing the same” (Dainippon Pharmaceutical Co., Ltd., priority 1995, dated 1999).

Test [1] is described as follows: Light and dark box test (anti-anxiety effect). In kind it is in vivo, mouse (Std-ddY, male). The settings on record: Mus musculus, 0.5 h; oral, 30 min before test; mice; p<0.05 vs vehicle; read-out: Anti-anxiety effect MED (minimum effective dose). The text has this: Experiment 2: Light and dark box test (anti-anxiety effect)
Anti-anxiety effect of test compounds was examined in a box with light and dark compartments according to the method of Crawley, J. and Goodwin, F. K. [cf. Pharmacol. Biochem. Behav. 13, 167-170 (1980)] with slight modification.
Light and dark box test is a useful, simple and handy method for behaviorally and pharmacologically examining anti-anxiety effect of the drugs, by utilizing the habit of rodents such as mice and rats, etc. which prefer to stay in a dark place, and regarding as positive drug effect the increase of the relative stay of the animals in the light compartment which is an uncomfortable place for the animals.
Light and dark box test was carried out using the test box device (35×15×17 cm) which comprises: a light compartment (20×15×17 cm) consisting of transparent acrylic plates and highly illuminated by an incandescent lamp (1,700 lux); a dark compartment (15×15×17 cm) being made of black acrylic plates connected to the light compartment; and at the boundary of compartments, an opening (4.4×5 cm) in which mice can go through freely between two compartments.
Male mice of Std-ddY strain weighing 25-30 g were used in a group of 10. Each trial was started by placing a mouse in the center of the light compartment 30 minutes after oral administration of a test compound, and the time spent by the mouse in the light compartment during a 5 minute observation period was measured, and the rate of the stay of mice in the light compartment to the whole time spent in the experiment was calculated. The increasing rate of the relative stay of the test compound to that of the vehicle control group was yielded, based on the rate of the stay of mice in the light compartment.
The anti-anxiety effect of the test compound was represented by the minimum effectivetive dose (MED) at which the increasing rate of the relative stay was regarded statistically as significant (Williams-Wilcoxon's test, p<0.05).

Test [2] addresses peripheral (ω3) benzodiazepine (BZ) receptor (Rattus norvegicus, UniProt P16257). As to the kind of experiment: BZω3 (peripheral-type) benzodiazepine receptor binding assay.
Method: Experiment 1: Central (ω1, ω2) and peripheral (ω3) benzodiazepine (BZ) receptor binding assays
BZω1 and BZω2 receptor binding assays were carried out according to the method of Stephens, D. N. et al. [cf.
Receptor membrane fractions for ω1, ω2 and ω3 were prepared from the cerebellum (ω1), spinal cord (ω1) or kidney (ω3) in 7-8 week old male rats of Wistar strain by the procedure described below.
After the cerebellum or spinal cord was homogenized with 20 volumes of ice-cold 50 mM Tris-citrate buffer (pH 7.1), the homogenate was centrifuged for 15 minutes at 40,000 g. The pellet obtained was washed 4 times by the same procedure, frozen and stored for 24 hours at -60° C. The resulting pellet, after being thawed, washed with the buffer and centrifuged, was suspended in the buffer I for the binding assay (50 mM Tris-HCl buffer containing 120 mM NaCl, 5 mM KCl, 2 mM CaCl2 and 1 mM MgCl2 ; pH 7.4) and the suspension thus obtained (containing 1 g wet tissue/40 ml) was used for the BZω1 and BZω2 receptor binding assays. On the other hand, the kidney was homogenized with 20 volumes of the ice-cold buffer II for the binding assay (50 mM Na--K phosphate buffer containing 100 mM NaCl; pH 7.4), filtered through 4 sheets of gauze, and centrifuged for 20 minutes at 40,000 g. The pellet obtained was suspended in the buffer II and the suspension (containing 1 g wet tissue/100 ml) was used for the binding assay as BZω3 receptor membrane source.
Flumazenil (final concentration: 0.3 nM for (ω1 and 1 nM for ω2) and flunitrazepam (final concentration: 10 μM) were used for the BZω1 or BZω2 receptor binding assays as the isotope-labeled and unlabeled ligands, respectively. For the BZω3 receptor binding assay, [^3 H] 4'-chlorodiazepam (7-chloro-1,3-dihydro-1-methyl-5-(4-chlorophenyl)-2H-1,4-benzodiazepin-2-one) (final concentration: 0.5 nM) and diazepam (final concentration: 100 μM) were used as the isotope-labeled and unlabeled ligands, respectively. Incubation was performed for 30 minutes at 37° C. in the BZω1 or BZω2 receptor binding assays, and for 150 minutes at 0° C. in the BZω3 receptor binding assay. The BZω1 or BZω2 receptor binding assays were carried out in the presence of bicuculline (final concentration: 100 μM).
The binding assay was performed by the following procedure. After adding each test compound at certain known concentrations, a [^3 H] ligand and the buffer I or II to each test tube, each assay was started by addition of membrane preparation (total volume of 1 ml). After incubation, the assay was terminated by filtration with suction through a Whatman GF/B glass fiber filter using a cell harvester (Brandel, USA). The filters were rapidly washed 3 times with 5 ml of ice-cold 50 mM Tris-HCl buffer (pH 7.7) for ω1 and ω2, or the buffer II forω3, and transferred to scintillation vials containing 10 ml liquid scintillation cocktail (ACS-II, Amersham, USA). After a few hours, retained radioactivity was counted by a liquid scintillation spectrometer. Specific binding of [^3 H] ligands was calculated as the difference between amounts of radioactivity bound in the presence and absence of excess unlabeled ligands.
A short description of test [3]: Isoniazid-induced clonic convulsion test (anti-convulsant effect). The class given is in vivo, mouse (Std-ddY, male). The settings on record: Mus musculus, 0.5 h; oral, 30 min before isoniazid 200 mg/kg s.c.; mice; read-out: Anti-isoniazid effect ED25 (dose which prolonged the onset time of clonic convulsion by 25%). The text has this: Experiment 3: Isoniazid-induced clonic convulsion test (anti-convulsant effect)
Isoniazid inhibits glutamate decarboxylase which catalyzes GABA synthesis, deases brain GABA levels, and induces clonic convulsion. According to the method of Auta, J. et al. [cf. J. Pharmacol. Exp. Ther. 265, 649-656 (1993)] with slight modification, we examined antagonistic effect of the test compounds on isoniazid-induced clonic convulsion. […] Those are BZ anxiolytics represented by diazepam, neurosteroids such as allopregnanolone, allotetrahydrodeoxycortico-sterone(THDOC) and BZω3 receptor agonists which enhance the synthesis of neurosteroids.
Male mice of Std-ddY strain weighing 22-24 g were used in a group of 6. Thirty minutes after oral administration of the test compounds, mice were injected with isoniazid (200 mg/kg, s.c.), and immediately thereafter, placed individually in acrylic observation cages. The onset time of clonic convulsion was measured (cut-off time: 90 minutes). The latency in the control group was about 40 minutes.
Anti-isoniazid effect of the test compounds was expressed as the dose which prolonged the onset time by 25% compared to that in the vehicle group (ED25). The ED25 value was calculated according to the Litchfield-Wilcoxon's method.

Test [4] is described as follows: Collagen-induced arthritis inhibitory test 1. In kind it is in vivo, mouse (DBA/1j, male). The note with it: for severity of arthritis (arthritic score) versus control group / onset of arthritis delayed until (days after the booster immunization): 10 mg/kg oral daily; for onset of arthritis delayed until (days after the booster immunization): control onset on 28th day; for effect on collagen-induced arthritis inhibitory test (conclusion): experiment 4, 10 mg/kg oral. The protocol:
Experiment 4: Collagen-induced arthritis inhibitory test 1
Collagen-induced arthritis inhibitory test is an experimental model for rheumatoid arthritis reported by Trethan, D. E. et al. [cf. […] J. Immunol., 140, 78-83 (1988)].
Collagen-induced arthritis inhibitory test was carried out according to Kakimoto, K. et al. (cf. above reference of Kakimoto, K. et al.) with slight modification. Solubilized bovine cartilage type II collagen (product of Elastine Products, U.S.A.) was emulsified in complete Freund's adjuvant (product of DIFCO Lab., U.S.A.). Male mice of DBA/1j strain (6 week-old; product of Nippon Charles River, Japan) were immunized by injection at the base of the tail with 150 μg of the emulsified collagen. After twenty one days from the immunization, arthritis was induced by a booster immunization of 150 μg of the emulsified collagen prepared in the same manner as above at the base of the tail again. A test compound was orally administered daily at the dose of 10 mg/kg from the first immunization. Mice were observed daily 5 days after the booster immunization for the onset of arthritis, and an arthritic score was derived by grading the severity of involvement of each paw five scales (0-4) according to the method of Wood, F. D. et al. [cf. Int. Arch. Allergy Appl. The severity of arthritis was estimated by the sum of the scores of all 4 paws, and the onset of the disease was determined when score 1 was observed.

A value given as a limit tells only on which side of the number the result lay.

As a reminder, the IC50 is the concentration that gives 50% inhibition.

For `Cc1nc(-c2ccccc2)nc(NCC(=O)N(C)c2ccc(F)cc2)c1C` [Example 35], the minimal effective dose in test [1] was 0.1 mg/kg. The compound also displayed a half-maximal inhibitory concentration (IC50) in test [2] of 1.51 nM. In test [3], the ED25 came out at 85.7 mg/kg.
The matching figures for `Cc1nc(-c2ccc(Cl)cc2)nc(NCC(=O)N(C)c2ccc(F)cc2)c1C` [Example 36, 2-[2-(4-Chlorophenyl)-5,6-dimethyl-4-pyrimidinylamino]-N-(4-fluorophenyl)-N-methylacetamide]: 0.3 mg/kg, 1.44 nM and 54.2 mg/kg.
For `Cc1nc(-c2ccccc2)nc(NCC(=O)N(C)c2ccc(Br)cc2)c1C` [Example 37], in test [1], the minimal effective dose was determined as 0.1 mg/kg. This compound also displayed an IC50 in test [2] of 1.66 nM. For the same compound, in test [3], the ED25 was found to be 61.9 mg/kg.
The matching figures for `COc1ccc(N(C)C(=O)CNc2nc(-c3ccc(Cl)cc3)nc(C)c2C)cc1` [Example 42, 2-[2-(4-Chlorophenyl)-5,6-dimethyl-4-pyrimidinylamino]-N-(4-methoxyphenyl)-N-methylacetamide]: below 0.01 mg/kg, 2.15 nM and 58.7 mg/kg.
For the compound `CCN(C(=O)CNc1nc(-c2ccc(Cl)cc2)nc(C)c1C)c1ccccc1` [Example 45, 2-[2-(4-Chlorophenyl)-5,6-dimethyl-4-pyrimidinylamino]-N-ethyl-N-phenylacetamide], the minimal effective dose in test [1] stood at 0.1 mg/kg. This compound gave an IC50 in test [2] of 0.7 nM. Moreover, the ED25 in test [3] stood at 9.6 mg/kg.
On to `CCCN(C(=O)CNc1nc(-c2ccccc2)nc(C)c1C)c1ccccc1` [Example 52, 2-(5,6-Dimethyl-2-phenyl-4-pyrimidinylamino)-N-phenyl-N-propylacetamide], for which the minimal effective dose in test [1] is 0.1 mg/kg. In test [2], this compound had an IC50 of 29.5 nM. For the same compound, in test [3], the ED25 is 23.5 mg/kg.
As to `CCCN(CCC)C(=O)CNc1cc(-c2ccccc2)nc(-c2ccccc2)n1` [Example 93, 2-(2,6-Diphenyl-4-pyrimidinylamino)-N,N-dipropylacetamide], the IC50 in test [2] is 4.1 nM. Moreover, in test [4], the “severity of arthritis (arthritic score) versus control group” value was “much lower than the control group”, the “onset of arthritis delayed until (days after the booster immunization)” value (“onset of arthritis delayed until” below) was 40 days and the “effect on collagen-induced arthritis inhibitory test (conclusion)” value is “potent effect”.
For `CCCN(CCC)C(=O)COc1nc(-c2ccccc2)nc(C)c1C` [Example 136, 2-(5,6-dimethyl-2-phenyl-4-pyrimidinyloxy)-N,N-dipropylacetamide], the minimal effective dose in test [1] is 0.3 mg/kg. The same compound returned an IC50 in test [2] of 0.34 nM. Moreover, in test [4], the “severity of arthritis (arthritic score) versus control group” value is “much lower than the control group”, the “onset of arthritis delayed until” value came to 34 days and the “effect on collagen-induced arthritis inhibitory test (conclusion)” value is given as “potent effect”.
Take `Cc1nc(-c2ccc(Cl)cc2)nc(OCC(=O)N(C)c2ccccc2)c1C` [Example 144, 2-[2-(4-Chlorophenyl)-5,6-dimethyl-4-pyrimidinyloxy]-N-methyl-N-phenylacetamide]: in test [2], the 50% inhibitory concentration (IC50) amounted to 0.31 nM. In test [4], the “severity of arthritis (arthritic score) versus control group” value is listed as “much lower than the control group”, the “onset of arthritis delayed until” value is 37 days and the “effect on collagen-induced arthritis inhibitory test (conclusion)” value is on record as “potent effect”.
